# From US10603296B1, “Compositions and methods for diagnosis and treatment of neuromuscular disorders” (United States of America as represented by the Secretary of …, priority 2019, dated 2020)
# “Also recorded” adds a separate entry of the source.
# Experiments:
# G-protein Gi1α = details: literature (Galbiati et al., Biochem J 313:717-720); cited from earlier work
# [1] = test system: alpha-smooth muscle actin (α-SMA); test: BioMAP human primary cell system mimicking myofibroblast development: alpha-smooth muscle actin level; format: cell-based; details: human primary lung fibroblasts stimulated with TGF-β and TNF-α, 24 hours; 2.6, 7.8, 23 and 70 μM; dose-dependent (FIG. 4)
# Protocol: Phenotypic profiling, including antifibrotic activity, was conducted across 12 human primary cell-based systems as part of DiscoverX's BioMAP Diversity Plus program. These systems are designed to model complex human tissue and disease biology of the vasculature, skin, lung, and inflammatory tissues. […] Cell-based activated systems were incubated with pure N-acetylhistamine for 24 to 72 hours. Protein-based biomarkers from activated cell systems were measured and compared with controls. Biomarker activities were annotated when 2 or more consecutive concentrations change in the same directions relative to vehicle controls, were outside of the significance envelope and had at least one concentration with an effect size >20% (log 10 ratio)>0.1.
# In our study, N-acetylhistamine, an […] involved in histadine metabolism, caused a significant and dose-dependent decrease in alpha-smooth muscle actin (α-SMA), a protein involved in muscle contraction, cell motility, structure and integrity and a marker for activated myofibroblast phenotype, in a human cell system mimicking myofibroblast development. In this system, human primary lung fibroblasts were stimulated with TGF-β and TNF-α and incubated with the test agent, drug control, or vehicle control for 24 hours. A negative, non-stimulated system was also included.
# [2] = room temperature; cited from earlier work
Structure (SMILES),effect on myristoylation of Gi1α (G-protein Gi1α),change in alpha-smooth muscle actin (α-SMA) compared to internal controls [1],stability of the powder [2]
CCCCCCCCCCCCC(O)C(=O)O (stereo not drawn) [2-hydroxymyristate],inhibits,,
CC(=O)NCCc1c[nH]cn1 [N-acetylhistamine],,significantly decreased; also recorded: lowered,stable at room temperature
